{"source": "paper PMC3940698", "about": "(PLoS ONE, 2014)", "key": {"CYP2C9 [1]": {"biological_target": "T1, CYP2C9 (Homo sapiens, UniProt P11712)", "T1 construct": "purchased Life Technologies (and Panvera), Invitrogen", "T1 sequence (P11712 whole entry)": "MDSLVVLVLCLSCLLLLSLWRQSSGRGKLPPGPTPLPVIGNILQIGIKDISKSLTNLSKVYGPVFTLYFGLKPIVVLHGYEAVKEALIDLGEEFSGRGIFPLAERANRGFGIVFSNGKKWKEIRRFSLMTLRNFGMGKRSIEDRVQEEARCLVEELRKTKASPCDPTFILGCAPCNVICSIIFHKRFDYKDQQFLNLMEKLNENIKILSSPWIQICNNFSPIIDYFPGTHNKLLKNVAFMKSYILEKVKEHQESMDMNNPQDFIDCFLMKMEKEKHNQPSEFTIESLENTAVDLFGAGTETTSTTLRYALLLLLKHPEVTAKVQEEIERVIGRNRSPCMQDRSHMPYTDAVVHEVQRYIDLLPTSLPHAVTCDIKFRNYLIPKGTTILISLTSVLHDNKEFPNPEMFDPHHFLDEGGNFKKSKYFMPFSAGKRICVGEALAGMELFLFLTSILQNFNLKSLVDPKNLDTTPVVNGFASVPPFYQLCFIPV", "experiment": "CYP2C9 baculosomes, diclofenac hydroxylation, inhibition;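 further: reactions run at 27 °C in 100 mM potassium phosphate, pH 7.4, in a 250 µl volume, with hydroxylated product quantified from HPLC peak areas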", "type": "biochemical", "details": "for Global Ki, linear regression / Global Ki, non-linear regression / pKi / Localized Ki, Chance equation / Localized Ki, Cheng-Prusoff equation: CYP2C9+Diclof"}, "[2]": {"biological_target": "rat liver microsomes (mixed CYPs)", "experiment": "Rat liver microsomes, diclofenac hydroxylation, inhibition", "type": "biochemical", "details": "for Global Ki, non-linear regression: KM taken as 10 µM", "text": "In some reactions, another method was used."}, "CYP2E1 [3]": {"biological_target": "T2, CYP2E1 (Homo sapiens, UniProt P05181)", "T2 sequence (P05181 whole entry)": "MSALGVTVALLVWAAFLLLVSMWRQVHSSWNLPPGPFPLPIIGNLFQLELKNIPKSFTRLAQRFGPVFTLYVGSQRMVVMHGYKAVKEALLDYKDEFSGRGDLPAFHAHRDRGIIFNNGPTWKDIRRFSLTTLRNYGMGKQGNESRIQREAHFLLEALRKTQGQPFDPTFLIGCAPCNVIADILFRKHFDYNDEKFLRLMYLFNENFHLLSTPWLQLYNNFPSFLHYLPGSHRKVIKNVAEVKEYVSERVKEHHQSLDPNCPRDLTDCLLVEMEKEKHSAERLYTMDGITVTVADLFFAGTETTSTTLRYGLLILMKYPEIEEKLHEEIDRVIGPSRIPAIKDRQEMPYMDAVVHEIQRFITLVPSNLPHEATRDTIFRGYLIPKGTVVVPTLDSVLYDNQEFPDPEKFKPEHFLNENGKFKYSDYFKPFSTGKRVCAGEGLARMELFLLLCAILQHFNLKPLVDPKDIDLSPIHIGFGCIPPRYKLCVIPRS", "experiment": "CYP2E1 baculosomes, pNP reaction", "details": "for Ki, Cheng-Prusoff method (in words): pNP reactions, CYP2E1 baculosomes, inhibitor 10 nM"}, "CYP2D6": {"biological_target": "T3, CYP2D6 (Homo sapiens, UniProt P10635)", "T3 construct": "host or cells: baculosomes", "T3 sequence (P10635 whole entry)": "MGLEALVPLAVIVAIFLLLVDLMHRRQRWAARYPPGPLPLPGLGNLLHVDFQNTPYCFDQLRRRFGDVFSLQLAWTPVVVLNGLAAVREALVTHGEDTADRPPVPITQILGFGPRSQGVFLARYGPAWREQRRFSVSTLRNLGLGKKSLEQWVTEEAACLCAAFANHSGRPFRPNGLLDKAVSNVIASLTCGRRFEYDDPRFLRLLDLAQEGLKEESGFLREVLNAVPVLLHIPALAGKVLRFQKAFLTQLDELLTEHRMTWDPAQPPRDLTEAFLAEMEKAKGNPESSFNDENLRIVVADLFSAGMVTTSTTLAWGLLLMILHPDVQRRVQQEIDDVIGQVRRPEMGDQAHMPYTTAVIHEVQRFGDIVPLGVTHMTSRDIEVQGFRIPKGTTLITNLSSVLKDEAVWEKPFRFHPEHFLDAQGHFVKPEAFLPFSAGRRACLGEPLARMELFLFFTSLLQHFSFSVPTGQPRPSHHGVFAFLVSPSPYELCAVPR", "experiment": "CYP2D6 baculosomes, diclofenac or pNP product formation", "type": "biochemical", "details": "CYP2D6 baculosomes 20 nM, inhibitor equivalent amount, 30 minutes"}, "CYP3A4": {"biological_target": "T4, CYP3A4 (Homo sapiens, UniProt P08684)", "T4 construct": "host or cells: baculosomes", "T4 sequence (P08684 2-503 limits assumed)": "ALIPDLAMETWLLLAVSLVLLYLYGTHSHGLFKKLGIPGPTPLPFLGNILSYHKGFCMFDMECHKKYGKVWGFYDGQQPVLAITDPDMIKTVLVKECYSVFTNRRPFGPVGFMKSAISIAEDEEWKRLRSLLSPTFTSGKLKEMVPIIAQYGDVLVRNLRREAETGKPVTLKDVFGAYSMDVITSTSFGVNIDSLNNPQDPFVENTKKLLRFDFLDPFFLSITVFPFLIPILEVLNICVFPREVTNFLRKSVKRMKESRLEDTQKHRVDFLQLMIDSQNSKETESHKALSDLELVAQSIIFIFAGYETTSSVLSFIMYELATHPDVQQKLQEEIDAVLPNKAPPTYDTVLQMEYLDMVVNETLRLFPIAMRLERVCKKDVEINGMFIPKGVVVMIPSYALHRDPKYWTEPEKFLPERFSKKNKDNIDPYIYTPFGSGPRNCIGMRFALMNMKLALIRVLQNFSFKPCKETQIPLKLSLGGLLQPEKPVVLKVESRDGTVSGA", "experiment": "CYP3A4 baculosomes, diclofenac or pNP product formation", "type": "biochemical", "details": "CYP3A4 baculosomes 20 nM, inhibitor equivalent amount, 30 minutes"}, "[4]": {"tested_on": "various CYPs tested (CYP2C9, CYP3A4, CYP2D6, CYP2E1)", "experiment": "Ki of BzBr for the various CYPs tested (baculosomes, Diclof or pNP)", "details": "equivalent substrate-BzBr concentrations"}, "CYP2E1 [5]": {"biological_target": "T2, CYP2E1"}, "CYP2C9 [6]": {"biological_target": "T1, CYP2C9", "details": "ref [4]-[6]; cited from earlier work"}, "[7]": {"details": "10 nM CYP, 100 µM diclofenac, 200 µM NADPH"}, "[8]": {"details": "KM taken as 10 µM, 10 nM CYP, 100 µM diclofenac, 200 µM NADPH"}, "[9]": {"details": "[I] 1 µM, read-out: Localized Ki, Cheng-Prusoff equation"}, "[10]": {"details": "Microsomes+Diclof, 0.5 µM CYP, 200 µM diclofenac, 400 µM NADPH"}, "[11]": {"details": "[I] 100 µM, read-out: Localized Ki, Cheng-Prusoff equation"}, "[12]": {"details": "[I] 0.01 µM, read-out: Localized Ki, Chance equation"}, "[13]": {"details": "[I] 1 µM, read-out: Localized Ki, Chance equation"}, "[14]": {"details": "[I] 0.01 µM, read-out: Localized Ki, Cheng-Prusoff equation"}}, "note": "pKi: −log10 of the molar value. Read-outs that look alike come from different tables or passages of the source.", "data": [{"compound": "CCc1oc2ccccc2c1C(=O)c1ccc(OC)cc1", "note": "[MeOBzr]", "values": [{"measurement": "Global Ki, linear regression", "setting": "CYP2C9 [1]; [7]", "result": "-"}, {"measurement": "Global Ki, non-linear regression", "setting": "CYP2C9 [1]; [8]", "result": "-"}, {"measurement": "pKi", "setting": "[2]; Microsomes+Diclof, 0.5 µM CYP, 200 µM diclofenac, 400 µM NADPH, read-out: Global Ki, linear regression", "result": 6.62}]}, {"compound": "vitamin E [Vit. E]", "values": [{"measurement": "Ki (in words)", "setting": "CYP2C9 [1]; baculosome reaction setup", "result": "∼nM"}]}, {"compound": "Oc1c(Br)cccc1Br", "note": "[DBP]", "values": [{"measurement": "pKi", "setting": "CYP2C9 [1]; [9]", "result": 5.58}, {"measurement": "Localized Ki, Chance equation", "setting": "CYP2C9 [1]; [I] 100 µM", "result": "-"}, {"measurement": "Localized Ki, Cheng-Prusoff equation", "setting": "CYP2C9 [1]; [I] 100 µM", "result": "-"}, {"measurement": "Ki at 10 nM inhibitor (in words)", "setting": "CYP2C9 [1]; CYP2C9 baculosome system, 10 nM", "result": "nanomolar"}, {"measurement": "Ki at 1 µM inhibitor (in words)", "setting": "CYP2C9 [1]; CYP2C9 baculosome system, 1 µM", "result": "micromolar"}, {"measurement": "Inhibition at 100 µM", "setting": "CYP2C9 [1]; CYP2C9 baculosome system, 100 µM", "result": "failed to give any inhibition"}, {"measurement": "Ki, Cheng-Prusoff method (in words)", "setting": "CYP2E1 [3]", "result": "low nM ranges"}, {"measurement": "Inhibition at 100 µM", "setting": "[2]; mixed microsomes, 100 µM", "result": "failed to give any inhibition"}]}, {"compound": "Benzothiadiazole", "values": [{"measurement": "Relative percentage of hydroxylated product formed vs positive control", "setting": "CYP2D6; 80 µM Diclof", "result": 0.3, "unit": "%"}, {"measurement": "Relative percentage of hydroxylated product formed vs positive control", "setting": "CYP2D6; 80 µM pNP", "result": "∼15%"}, {"measurement": "Relative percentage of hydroxylated product formed vs positive control", "setting": "CYP2C9 [1]; CYP2C9 baculosomes 20 nM, 80 µM Diclof, inhibitor equivalent amount, 250 µM NADPH, 30 minutes", "result": 90.1, "unit": "%"}, {"measurement": "Relative percentage of hydroxylated product formed vs positive control", "setting": "CYP2E1 [3]; CYP2E1 baculosomes 20 nM, 80 µM pNP, inhibitor equivalent amount, 30 minutes", "result": 15, "unit": "%"}, {"measurement": "Relative percentage of hydroxylated product formed vs positive control", "setting": "CYP3A4; 80 µM Diclof", "result": 17, "unit": "%"}, {"measurement": "Relative percentage of hydroxylated product formed vs positive control", "setting": "CYP3A4; 80 µM pNP", "result": "∼15%"}]}, {"compound": "CCc1oc2ccccc2c1C(=O)c1cc(I)c(OC)c(I)c1", "note": "[MeOBzIr]", "values": [{"measurement": "Global Ki, linear regression", "setting": "CYP2C9 [1]; [7]", "result": "-"}, {"measurement": "Global Ki, non-linear regression", "setting": "CYP2C9 [1]; [8]", "result": "-"}]}, {"compound": "CCc1oc2ccccc2c1C(=O)c1cc(Br)c(O)c(Br)c1", "note": "[BzBr, benzbromarone]", "values": [{"measurement": "Ki derived from calculations (in words)", "setting": "[4]", "result": "Submicromolar"}, {"measurement": "Ki, Cheng-Prusoff method (in words)", "setting": "CYP2E1 [3]", "result": "low nM ranges"}, {"measurement": "Global Ki, linear regression", "setting": "[2]; [10]", "result": "-"}, {"measurement": "Global Ki, non-linear regression", "setting": "[2]; [10]", "result": "-"}]}, {"compound": "COc1cc(Br)c(O)c(Br)c1", "note": "[DBMP]", "values": [{"measurement": "Localized Ki, Chance equation", "setting": "CYP2C9 [1]; [I] 0.01 µM", "result": "-"}, {"measurement": "Localized Ki, Cheng-Prusoff equation", "setting": "CYP2C9 [1]; [I] 0.01 µM", "result": "-"}, {"measurement": "pKi", "setting": "CYP2C9 [1]; [9]", "result": 6.51}, {"measurement": "pKi", "setting": "CYP2C9 [1]; [11]", "result": 4.02}, {"measurement": "Ki, Cheng-Prusoff method (in words)", "setting": "CYP2E1 [3]", "result": "low nM ranges"}]}, {"compound": "O=C(O)c1cc(Br)c(O)c(Br)c1", "note": "[DBHB]", "values": [{"measurement": "pKi", "setting": "CYP2C9 [1]; [12]", "result": 8.19}, {"measurement": "pKi", "setting": "CYP2C9 [1]; [13]", "result": 4.01}, {"measurement": "pKi", "setting": "CYP2C9 [1]; [9]", "result": 7.05}, {"measurement": "pKi", "setting": "CYP2C9 [1]; [11]", "result": 5.06}, {"measurement": "Ki via non-linear regression (in words)", "setting": "CYP2C9 [1]; CYP2C9 baculosomes", "result": "sub-nanomolar"}, {"measurement": "Ki via linear regression analysis (in words)", "setting": "CYP2C9 [1]; CYP2C9 baculosomes, same experimental data", "result": "supra-millimolar"}, {"measurement": "Ki, Cheng-Prusoff method (in words)", "setting": "CYP2E1 [3]", "result": "low nM ranges"}]}, {"compound": "NC(Cc1cc(I)c(O)c(I)c1)C(=O)O", "note": "(centres unmarked) [DIT]", "values": [{"measurement": "Global Ki, linear regression", "setting": "CYP2C9 [1]; [7]", "result": "-"}, {"measurement": "Global Ki, non-linear regression", "setting": "CYP2C9 [1]; [8]", "result": "-"}, {"measurement": "pKi", "setting": "CYP2C9 [1]; [12]", "result": 8.26}, {"measurement": "pKi", "setting": "CYP2C9 [1]; [14]", "result": 9.15}, {"measurement": "Localized Ki, Chance equation", "setting": "CYP2C9 [1]; [I] 1 µM", "result": "-"}, {"measurement": "Localized Ki, Cheng-Prusoff equation", "setting": "CYP2C9 [1]; [I] 1 µM", "result": "-"}, {"measurement": "pKi", "setting": "CYP2C9 [1]; [11]", "result": 4.37}]}, {"compound": "CCc1oc2ccccc2c1C(=O)c1cc(Br)c(OC)c(Br)c1", "note": "[MeOBzBr]", "values": [{"measurement": "pKi", "setting": "[2]; read-out: Ki at 100 µM inhibitor, microsome setups, 100 µM inhibitor", "result": 5.43}]}, {"compound": "CCc1oc2ccccc2c1C(=O)c1cc(I)c(O)c(I)c1", "note": "[BzIr, benziodarone]", "values": [{"measurement": "Ki, Cheng-Prusoff method (in words)", "setting": "CYP2E1 [5]", "result": "low nM ranges"}, {"measurement": "pKi", "setting": "CYP2C9 [1]; 10 nM CYP, 100 µM diclofenac, 200 µM NADPH, read-out: Global Ki, linear regression", "result": 4.51}, {"measurement": "pKi", "setting": "CYP2C9 [1]; KM taken as 10 µM, 10 nM CYP, 100 µM diclofenac, 200 µM NADPH, read-out: Global Ki, non-linear regression", "result": 8.55}, {"measurement": "pKi", "setting": "CYP2C9 [1]; [12]", "result": 6.61}, {"measurement": "pKi", "setting": "CYP2C9 [1]; [14]", "result": 8.59}, {"measurement": "pKi", "setting": "CYP2C9 [1]; [13]", "result": 6.00}, {"measurement": "pKi", "setting": "CYP2C9 [1]; [9]", "result": 8.04}, {"measurement": "pKi", "setting": "CYP2C9 [1]; [I] 100 µM, read-out: Localized Ki, Chance equation", "result": 3.72}, {"measurement": "pKi", "setting": "CYP2C9 [1]; [11]", "result": 6.19}, {"measurement": "pKi", "setting": "CYP2C9 [6]", "result": "≥ 9.00"}, {"measurement": "Global Ki, linear regression", "setting": "[2]; [10]", "result": "-"}, {"measurement": "Global Ki, non-linear regression", "setting": "[2]; [10]", "result": "-"}]}]}
